Columns and labels:
Type in all cases: in vivo
[1] = tested on: northern house mosquito, Culex pipiens; assay: Static-air choice-test apparatus, percentage and contact repellency bioassay; conditions: 15 minutes
Procedure: A static-air choice-test apparatus as described above was used to determine the behavioral effects on the insects in this study. The apparatus consisted of a 9×60-cm section of glass tubing with a 2-cm hole drilled at the midpoint along the length for central introduction of the insects. All of the testing was conducted in an environmental chamber at 26° C.
Treatments included catnip essential oil, obtained by steam distillation as described herein and in Peterson, et al., J. Econ. Entomol., 2002, 95, 377-380. Osage orange essential oil, obtained by steam distillation of whole fruits previously described in Peterson, et al., J. Essential Oil Res., 2002, 14, 233-236, elemol (Augustus Oils, New Hampshire, England), and DEET (Aldrich, St. Louis, Mo.) test solutions at 1%, 0.5% and 0.1% concentrations (wt/vol). The test solutions' solvent, hexane, served as a control treatment in this assay.
One milliliter of the solution was applied to one half of a 9-cm diameter round filter paper with an area of 63.6 cm^2 and then allowed to dry before testing. […] Treated filter papers were placed inside the lids of 9-cm glass petri dishes, and placed over the ends of the glass tube. The position of the treated side, to the right or to the left, was selected by using a random-number table. Approximately fifteen unmated adult female mosquitoes were anaesthetized with CO2 and then introduced to the 9×60-cm glass cylinder through the centered 2-cm hole. Timing began two minutes after mosquito introduction, and mosquito distribution inside the static-air choice-test apparatus was observed over a 180-minute period for each treatment. Mosquito distribution (number of individuals on treated and untreated side) was recorded at 15, 30, 60, 90, 120, and 180-minute timepoints.
The data generated by this study was used to examine two measures of mosquito repellency, percentage repellency and contact repellency. Percentage repellency was calculated for with the following formula: Percentage Repellency=((Number of Individuals on Untreated Half-Number of Individuals on Treated Half)/15)×100.
Contact repellency was defined in this assay as 100% avoidance of the treated filter paper (no contact). 15, 30, 60, 90, 120, and 180-minute time-points were used to assess contact repellency for individual observations.
The experimental design was a completely randomized design using three replications of each treatment. Analysis of variance was performed on SAS (PROC GLM; SAS Version 8) to identify significant differences of percentage repellency due to treatment, and concentration. Multiple comparisions were completed using Tukey's procedure. Treatment pair-wise comparisons of contact repellency, which included data from the six time-points observed for each treatment, were completed using Fishers Exact (PROC FREQ; SAS Version 8).

[2] = tested on: northern house mosquito, Culex pipiens; assay: Mosquito residual repellency bioassay (aged treated filter papers), static-air chamber
Text: Aged applications of catnip essential oil, elemol, DEET, and hexane (control) were compared in the static-air choice-test apparatus under the same conditions as described above. The 0.5% and 0.1% (wt/vol) solutions of each test solution were made to yield the same rate of active ingredient used in the above mosquito repellency bioassay. Individually treated filter papers were then placed in a fume hood and aged for 0, 30, 60, 120, or 180-minutes, allowing volatization to occur over a set period of time. After the specified ageing period, filter papers were placed on the inside of the 9-cm glass petri dish lids, and then placed over the ends of the glass tube. The position of the treated side was randomized. Approximately […] unmated adult female mosquitoes were anaesthetized with CO2 and then introduced to the 9×60-cm glass cylinder through the centered 2-cm hole. Timing began 2 minutes after mosquito introduction, and mosquito distribution (number of individuals on treated and untreated sides) inside the static-air choice-test apparatus was recorded after 15 minutes for determination of Percentage Repellency (calculations shown under Percentage and Contact Repellency Bioassay). Experimental design was completely randomized with three replications of each aged test solution. Analysis of variance was used to identify significant differences related to active ingredient, concentration, and ageing period. Regression analysis was used to examine percentage repellency relationship to filter paper ageing.

[3] = tested on: yellow fever mosquitoes, Aedes aegypti; assay: Static-air repellency chamber, spatial and contact repellency, adult female yellow fever mosquitoes; conditions: for long term repellency (in excess of two hours): Table 20, up to 360 min; for Average Percentage Repellency Over Time: application rate 78.6 μg/cm^2
Procedure: Test Equipment. In this testing, a static air repellency chamber was used. The apparatus consisted of a 9×60-cm section of glass tubing with a 2-cm hole drilled at the midpoint along the length for central introduction of the insects. All of the testing was conducted in an environmental chamber at ambient temperatures.
Test Methods. The data for spatial repellency was collected at 15 minutes after the introduction of female yellow fever mosquitoes into a static air repellency chamber. Data for the contact repellency was collected after three hours. The concentrations used in the tests are 1% solution (1 ml of it on a 9-cm diameter filter paper). One (1) ml of a 1% (wt/vol) solution of repellent substance containing hexane as a carrier was pipetted onto a 9-cm diameter filter paper results in a concentration of 157 μg/cm^2. The solution contained the desired mass of compound to be tested added to the desired volume of hexane, e.g., for a 1% solution of catnip essential oil, […] was added to 100 ml of hexane.
One milliliter of the solution was applied to one half of a 9-cm diameter round filter paper with an area of 63.6 cm^2 and then allowed to dry before testing. […] Treated filter papers were placed inside the lids of 9-cm glass petri dishes, and placed over the ends of the glass tube. The position of the treated side, to the right or to the left, was selected by using a random-number table. Approximately fifteen unmated adult female mosquitoes were anaesthetized with CO2 and then introduced to the 9×60-cm glass cylinder through the centered 2-cm hole. Timing began 2 minutes after mosquito introduction, and mosquito distribution inside the static-air choice-test apparatus was observed over a 15-minute period for each treatment to determine spatial repellency. Basically the number of mosquitoes in the non-treated half were considered to be repelled and were counted. Percent repellency was considered to be: (Number of Individuals on Untreated Half−Number of Individuals on Treated Half)/15)×100. Contact repellency was defined in this assay as 100% avoidance of the treated filter paper-after three hours. The experimental design was a completely randomized design using six replications of each treatment.
All test methods were the same as described in Example 7, except spatial repellency over a longer period.
Test Methods. […] Also only three replications were used instead of six.

[4] = concentration 0.1% (15.7 μg/cm^2)
[5] = concentration 0.5% (78.6 μg/cm^2)
[6] = 15.7 μg/cm^2 (0.1%), treatment aged 0 min
[7] = 15.7 μg/cm^2 (0.1%), treatment aged 30 min
[8] = 15.7 μg/cm^2 (0.1%), treatment aged 60 min
[9] = 15.7 μg/cm^2 (0.1%), treatment aged 120 min
[10] = 15.7 μg/cm^2 (0.1%), treatment aged 180 min
[11] = 78.6 μg/cm^2 (0.5%), treatment aged 0 min
[12] = 78.6 μg/cm^2 (0.5%), treatment aged 30 min
[13] = 78.6 μg/cm^2 (0.5%), treatment aged 60 min
[14] = 78.6 μg/cm^2 (0.5%), treatment aged 120 min
[15] = 78.6 μg/cm^2 (0.5%), treatment aged 180 min

SMILES | Percentage Repellency [1, 4] | Percentage Repellency [1, 5] | Percentage Repellency ([1]; concentration 1% (157 μg/cm^2)) | Percentage Repellency Over Time [2, 6] | Percentage Repellency Over Time [2, 7] | Percentage Repellency Over Time [2, 8] | Percentage Repellency Over Time [2, 9] | Percentage Repellency Over Time [2, 10] | Percentage Repellency Over Time [2, 11] | Percentage Repellency Over Time [2, 12] | Percentage Repellency Over Time [2, 13] | Percentage Repellency Over Time [2, 14] | Percentage Repellency Over Time [2, 15] | long term repellency (in excess of two hours) [3] | Average Percentage Repellency Over Time ([3]; 60 min) | Average Percentage Repellency Over Time ([3]; 120 min) | Average Percentage Repellency Over Time ([3]; 360 min) | Average Percentage Repellency Over Time ([3]; Initial) | other results
CCN(CC)C(=O)c1cccc(C)c1 [DEET, N,N-diethyl-3-methylbenzamide, reference compound] | 59.3% | 62.3% | 44.4% | 54.9% | 23.1% | 45.7% | 39% | 70.6% | 74.0% | 37% | 59% | 77.7% | 74% | long term repellency | 64% | 47% | 49% | 52% | –
C=CC1(C)CCC(C(C)(C)O)CC1C(=C)C (stereo not shown) [Elemol] | 63.0% | 81.3% | 74.1% | 35.0% | 30.8% | 49% | 20.7% | 44.8% | 84.7% | 76.5% | 96.5% | 80.8% | 76.5% | long term repellency | 52% | 43% | 35% | 56% | % repellency ([3]; 78.6 μg/cm^2 (equivalent to a 0.5% solution), determined at 15 minutes, three replications): 38.9%; Avoidance Frequency ([3]; Conc 1% (157 μg/cm^2), average of mosquito contact repellency over 3-hour time period): 97; Repellency (%) (15-minute spatial repellency) ([3]; Conc 1% (157 μg/cm^2), determined at 15 minutes, six replications): 63.6%; spatial and contact repellency over a 6-hour time period ([3]; other data from our lab, 6-hour time period): good spatial and very good contact repellents

Source: patent publication US7939091B2, “Biorational repellents obtained from terpenoids for use against arthropods” (Iowa State University Research Foundation, Inc., priority 1999, dated 2011)
